In paper PMC9221290, “Alkaloids of Dicranostigma franchetianum (Papaveraceae) and Berberine Derivatives as a New Class of Antimycobacterial Agents” (Biomolecules, 2022):
Read-outs that look alike come from different tables or passages of the source.

What was measured:
[1] = test system: Mycobacterium avium DSM 44156 (ATCC 25291); assay: Antimycobacterial microdilution broth assay (resazurin), M. avium; assay type: cell-based; details: Mycobacterium avium, 96 h, read-out: MIC M. avium, microdilution broth, resazurin, 96 h
[2] = test system: Mycolicibacterium smegmatis DSM 43465 (ATCC 607); assay: Antimycobacterial microdilution broth assay (resazurin), M. smegmatis; assay type: cell-based; details: Mycolicibacterium smegmatis, 48 h, read-out: MIC M. smegmatis, microdilution broth, resazurin, 48 h
[3] = test system: Mtb H37Ra ITM-M006710 (ATCC 9431); assay: Antimycobacterial microdilution broth assay (resazurin), Mtb H37Ra; assay type: cell-based, Mycobacterium tuberculosis; details: Mycobacterium tuberculosis, read-out: MIC Mtb H37Ra
[4] = in vitro; details: human, % of cell viability compared to control; for viability at 1 µM: HepG2, 1 µM; for viability at 5 µM: HepG2, 5 µM; for viability at 10 µM: HepG2, 10 µM; for viability at 25 µM: HepG2, 25 µM; for viability at 50 µM: HepG2, 50 µM; for viability at 75 µM: HepG2, 75 µM; for viability at 100 µM: HepG2, 100 µM; for viability at 0.1 µM: HepG2, 0.1 µM; for viability at 20 µM: HepG2, 20 µM; for viability at 30 µM: HepG2, 30 µM; for viability at 40 µM: HepG2, 40 µM
[5] = test system: Mycolicibacterium aurum DSM 43999 (ATCC 23366); assay: Antimycobacterial microdilution broth assay (resazurin), M. aurum; assay type: cell-based; details: Mycolicibacterium aurum, 72 h, read-out: MIC M. aurum, microdilution broth, resazurin, 72 h
[6] = test system: HepG2 cells; assay: cells; details: Homo sapiens, HepG2, 24 h
[7] = test system: Mycobacterium kansasii DSM 44162 (ATCC 12478); assay: Antimycobacterial microdilution broth assay (resazurin), M. kansasii; assay type: cell-based; details: Mycobacterium kansasii, 96 h, read-out: MIC M. kansasii, microdilution broth, resazurin, 96 h
[8] = test system: HepG2 cells
[9] = 120 h, microdilution broth, resazurin, 120 h
[10] = calculated from MIC (µg/mL) and MW
[11] = read-out: HepG2 IC50, 1. measurement, MTT, 24 h, single measurement 1
[12] = read-out: HepG2 IC50, 2. measurement, MTT, 24 h, single measurement 2
[13] = read-out: HepG2 IC50, 3. measurement, MTT, 24 h, single measurement 3
[14] = read-out: HepG2 IC50, MTT, 24 h incubation

Compound	MIC [1]	MIC [2]	MIC [3, 9]	MIC [3, 10]	viability at 1 µM ([4]; 1. measurement)	viability at 5 µM ([4]; 1. measurement)	viability at 10 µM ([4]; 1. measurement)	viability at 1 µM ([4]; 2. measurement)	viability at 5 µM ([4]; 2. measurement)	viability at 10 µM ([4]; 2. measurement)	viability at 50 µM ([4]; 2. measurement)	viability at 1 µM ([4]; 3. measurement)	viability at 5 µM ([4]; 3. measurement)	viability at 10 µM ([4]; 3. measurement)	viability at 50 µM ([4]; 3. measurement)	MIC [5]	IC50 [6, 11]	IC50 [6, 12]	IC50 [6, 13]	IC50 [6, 14]	further results
COc1ccc2cc3[n+](cc2c1OCc1ccccc1C)CCc1cc2c(cc1-3)OCO2 [16b, 9-O-(2-methylbenzyl)berberine chloride]	3.91 µg/mL	1.95 µg/mL	7.81 µg/mL	16.9 µM	96%	83.6%	73%	97.8%	87.1%	76.6%	42.5%	99.4%	88.8%	76.5%	44.9%	7.81 µg/mL	36 µM	38.6 µM	43.2 µM	39.3 ± 3.62 µM	viability at 25 µM ([4]; 1. measurement): 48.6%; viability at 50 µM ([4]; 1. measurement): 41.5%; viability at 75 µM ([4]; 1. measurement): 39.3%; viability at 100 µM ([4]; 1. measurement): 37.5%; viability at 25 µM ([4]; 2. measurement): 51.6%; viability at 75 µM ([4]; 2. measurement): 41.1%; viability at 100 µM ([4]; 2. measurement): 33.8%; viability at 0.1 µM ([4]; 3. measurement): 99.5%; viability at 25 µM ([4]; 3. measurement): 51.6%; viability at 75 µM ([4]; 3. measurement): 42.6%; viability at 100 µM ([4]; 3. measurement): 38.5%; MIC [7]: 3.91 µg/mL; SI (selectivity index) [8]: 2.32
COc1ccc2cc3[n+](cc2c1OCc1cccc(Br)c1)CCc1cc2c(cc1-3)OCO2 [16f, 9-O-(3-brombenzyl)berberine chloride]	3.12 µg/mL	0.78 µg/mL	3.12 µg/mL	5.93 µM	95.5%	69.4%	54.8%	104%	76.8%	56.1%	32.8%	90.5%	62.6%	49.4%	23.7%	1.56 µg/mL	14.1 µM	17 µM	10.5 µM	13.9 ± 3.25 µM	viability at 25 µM ([4]; 1. measurement): 48.3%; viability at 50 µM ([4]; 1. measurement): 39.3%; viability at 75 µM ([4]; 1. measurement): 28%; viability at 100 µM ([4]; 1. measurement): 12.3%; viability at 25 µM ([4]; 2. measurement): 52.7%; viability at 75 µM ([4]; 2. measurement): 2.26%; viability at 100 µM ([4]; 2. measurement): 0.77%; viability at 25 µM ([4]; 3. measurement): 43.7%; viability at 75 µM ([4]; 3. measurement): 2.27%; viability at 100 µM ([4]; 3. measurement): 1.1%; MIC [7]: 3.12 µg/mL; SI (selectivity index) [8]: 2.34
COc1ccc2cc3[n+](cc2c1OCc1ccc(Cl)cc1)CCc1cc2c(cc1-3)OCO2 [16i, 9-O-(4-chlorbenzyl)berberine chloride]	1.56 µg/mL	1.56 µg/mL	3.12 µg/mL	5.93 µM	101%	82.3%	55.3%	93.6%	78%	56%	3.4%	100%	82.3%	61.1%	2.8%	3.12 µg/mL	15.9 µM	14.7 µM	18 µM	16.2 ± 1.67 µM	viability at 0.1 µM ([4]; 1. measurement): 96.1%; viability at 20 µM ([4]; 1. measurement): 48.5%; viability at 30 µM ([4]; 1. measurement): 42.3%; viability at 40 µM ([4]; 1. measurement): 24.7%; viability at 50 µM ([4]; 1. measurement): 4.45%; viability at 0.1 µM ([4]; 2. measurement): 91.6%; viability at 20 µM ([4]; 2. measurement): 48.4%; viability at 30 µM ([4]; 2. measurement): 40%; viability at 40 µM ([4]; 2. measurement): 21.4%; viability at 0.1 µM ([4]; 3. measurement): 98.2%; viability at 20 µM ([4]; 3. measurement): 54.6%; viability at 30 µM ([4]; 3. measurement): 45%; viability at 40 µM ([4]; 3. measurement): 25.8%; MIC [7]: 6.25 µg/mL; SI (selectivity index) [8]: 2.73
COc1ccc2cc3[n+](cc2c1OCc1cccc(C)c1)CCc1cc2c(cc1-3)OCO2 [16c, 9-O-(3-methylbenzyl)berberine chloride]	6.25 µg/mL	1.56 µg/mL	6.25 µg/mL	13.5 µM	87.2%	88.3%	74%	88.3%	78.7%	68.3%	47.9%	99.8%	78.9%	64.9%	47.3%	3.12 µg/mL	55.6 µM	43.4 µM	42.3 µM	47.1 ± 7.38 µM	viability at 20 µM ([4]; 1. measurement): 58.4%; viability at 40 µM ([4]; 1. measurement): 54.5%; viability at 60 µM ([4]; 1. measurement, HepG2, 60 µM): 53.3%; viability at 80 µM ([4]; 1. measurement, HepG2, 80 µM): 49.5%; viability at 100 µM ([4]; 1. measurement): 35.1%; viability at 25 µM ([4]; 2. measurement): 52.9%; viability at 75 µM ([4]; 2. measurement): 45.7%; viability at 100 µM ([4]; 2. measurement): 39%; viability at 0.1 µM ([4]; 3. measurement): 102%; viability at 25 µM ([4]; 3. measurement): 48.6%; viability at 75 µM ([4]; 3. measurement): 46.1%; viability at 100 µM ([4]; 3. measurement): 42.5%; MIC [7]: 6.25 µg/mL; SI (selectivity index) [8]: 3.49
